According to US11986480B2, “Heterocyclic compound” (TOHOKU UNIVERSITY, priority 2017, dated 2024):
Where a name gives a salt, the structure may show the parent alone.

test system: EmGFP-HaloTag; test: Test Example 1: HeLa cells stably expressing EmGFP-HaloTag, Western blot GFP/actin (Testing Method A); type: cell-based; conditions: 1 uM, 24 hours, 1 or less = degradation promoted
Experimental: Test Example 1: Evaluation Method Using Cell Stably Expressing EmGFP-HaloTag (Testing Method A)
HeLa cells stably expressing EmGFP-HaloTag were inoculated to Dulbecco's Modified Eagle Medium (DMEM) and cultured for 24 hours. Then, a test compound (specifically, compounds of Examples 1 to 7, 9 to 11, 13 to 15, 17 to 20, 24 to 27, 29, 32 to 33, 36 to 42, 44 to 46 and 56) was added thereto at the final concentration shown in Table 2, followed by incubation for 24 hours under conditions of 37° C./5% CO2. The cells were washed with PBS three times and treated with a cell lysis solution containing a proteolytic enzyme inhibitor to obtain a cell extract. The cell extract was subjected to SDS-PAGE. After the electrophoresis, GFP and actin were detected by Western blot. The ratio of the GFP/actin value of the drug-treated cells to the GFP/actin value of a control group in drug-untreated cells was regarded as an activity value. A value of 1 or less represents that degradation of EmGFP-HaloTag was promoted.

Compound | Activity value (GFP/actin of drug-treated cells relative to drug-untreated control)
CC(=O)Nc1nc2c(nc(SC[C@H](NC(C)=O)C(=O)NCCOCCOCCOCCOCCOCCCCCCCl)n2Cc2ccc(F)cc2)c(=O)[nH]1 [Example 27, S-(2-Acetamido-9-(4-fluorobenzyl)-6-oxo-6,9-dihydro-1H-purin-8-yl)-N^2-acetyl-N-(21-chloro-3,6,9,12,15-pentaoxahenicos-1-yl)-L-cysteinamide] | 0.7
CC(=O)N[C@@H](CSc1nc2c(=O)[nH]c(N)nc2n1Cc1cccc(Cl)c1)C(=O)NCCOCCOCCOCCOCCOCCCCCCCl [Example 37, N^2-acetyl-S-(2-amino-9-(3-chlorobenzyl)-6-oxo-6,9-dihydro-1H-purin-8-yl)-N-(21-chloro-3,6,9,12,15-pentaoxahenicos-1-yl)-L-cysteinamide] | 0.7
CC(=O)N[C@@H](CSc1nc2c(=O)[nH]c(N)nc2n1Cc1ccc(C)cc1)C(=O)NCCOCCOCCOCCOCCOCCCCCCCl [Example 25, N^2-acetyl-S-(2-amino-9-(4-methylbenzyl)-6-oxo-6,9-dihydro-1H-purin-8-yl)-N-(21-chloro-3,6,9,12,15-pentaoxahenicos-1-yl)-L-cysteinamide] | 0.9
CC(=O)N[C@@H](CSc1nc2c(=O)n(C)c(=O)n(C)c2n1Cc1ccc(F)cc1)C(=O)NCCOCCOCCOCCOCCOCCCCCCCl [Example 13, N^2-Acetyl-N-(21-chloro-3,6,9,12,15-pentaoxahenicos-1-yl)-S-(9-(4-fluorobenzyl)-1,3-dimethyl-2,6-dioxo-2,3,6,9-tetrahydro-1H-purin-8-yl)-L-cysteinamide] | 0.1
CC(=O)N[C@@H](CSc1nc2c(=O)n3cc[nH]c3nc2n1Cc1ccc(F)cc1)C(=O)NCCOCCOCCOCCOCCOCCCCCCCl [Example 44, N^2-Acetyl-N-(21-chloro-3,6,9,12,15-pentaoxahenicos-1-yl)-S-(3-(4-fluorobenzyl)-9-oxo-5,9-dihydro-3H-imidazo[1,2-a]purin-2-yl)-L-cysteinamide] | 0.9

same assay, conditions: 10 uM, 24 hours, 1 or less = degradation promoted

Compound | Activity value (GFP/actin of drug-treated cells relative to drug-untreated control)
Nc1nc2c(nc(-c3cccc(C(=O)NCCOCCOCCOCCOCCOCCCCCCCl)c3)n2Cc2ccc(F)cc2)c(=O)[nH]1 [Example 4, 3-(2-amino-9-(4-fluorobenzyl)-6-oxo-6,9-dihydro-1H-purin-8-yl)-N-(21-chloro-3,6,9,12,15-pentnoxahenicos-1-yl)benzamide] | 0.8
CC(=O)N[C@@H](CSc1nc2c(N)nc(N)nc2n1Cc1ccc(F)cc1)C(=O)NCCOCCOCCOCCOCCOCCCCCCCl [Example 45, N^2-Acetyl-N-(21-chloro-3,6,9,12,15-pentaoxahenicos-1-yl)-S-(2,6-diamino-9-(4-fluorobenzyl)-9H-purin-8-yl)-L-cysteinamide] | 0.7
CC(=O)N[C@@H](CSc1nc2c(=O)[nH]c(N)nc2n1Cc1ccc(C#N)cc1)C(=O)NCCOCCOCCOCCOCCOCCCCCCCl [Example 36, N^2-acetyl-S-(2-amino-9-(4-cyanobenzyl)-6-oxo-6,9-dihydro-1H-purin-8-yl)-N-(21-chloro-3,6,9,12,15-pentaoxahenicos-1-yl)-L-cysteinamide] | 0.9

same assay, conditions: 100 uM, 24 hours, 1 or less = degradation promoted

Compound | Activity value (GFP/actin of drug-treated cells relative to drug-untreated control)
Nc1nc2c(nc(CNCCOCCOCCOCCOCCOCCCCCCCl)n2Cc2ccc(F)cc2)c(=O)[nH]1 [Example 32, 2-Amino-8-(23-chloro-5,8,11,14,17-pentaoxa-2-azatricos-1-yl)-9-(4-fluorobenzyl)-1,9-dihydro-6H-purin-6-one] | 0.7

molecular target: Brd4 (Homo sapiens, UniProt O60885); test: Test Example 3: HeLa cells, Western blot Brd4/actin (Testing Method C); type: cell-based; design: endogenous in cells; host or cells: HeLa; conditions: BRD4, 1 uM, 24 hours, 1 or less = degradation promoted
Experimental: Test Example 3: Evaluation Using HeLa Cell (Testing Method C)
HeLa cells were inoculated to Dulbecco's Modified Eagle Medium (DMEM) and cultured for 24 hours. A test compound (specifically, compounds of Examples 47 to 52, 59 and 60) was added thereto at the final concentration shown in Table 2, followed by incubation for 24 hours under conditions of 37° C./5% CO2. The cells were washed with PBS three times and treated with a cell lysis solution containing a proteolytic enzyme inhibitor to obtain a cell extract. The cell extract was subjected to SDS-PAGE. After the electrophoresis, Brd4, FKBP12 or MetAP2 and actin were detected by Western blot. The ratio of the Brd4, FKBP12 or MetAP2/actin value of the drug-treated cells to the Brd4, FKBP12 or MetAP2/actin value of a control group in drug-untreated cells was regarded as an activity value. A value of 1 or less represents that degradation of Brd4, FKBP12 or MetAP2 was promoted.

Activity value (Brd4/actin of drug-treated cells relative to drug-untreated control) | Compound
0.6 | CC(=O)N[C@@H](CSc1nc2c(=O)[nH]c(N)nc2n1Cc1ccc(F)cc1)C(=O)NCCOCCOCCOCCNC(=O)C[C@@H]1N=C(c2ccc(Cl)cc2)c2c(sc(C)c2C)-n2c(C)nnc21 [Example 51, N^2-Acetyl-S-(2-amino-9-(4-fluorobenzyl)-6-oxo-6,9-dihydro-1H-purin-8-yl)-N-(14-((6S)-4-(4-chlorophenyl)-2,3,9-trimethyl-6H-thieno[3,2-f][1,2,4]triazolo[4,3-a][1,4]diazepin-6-yl)-13-oxo-3,6,9-trioxa-12-azatetradec-1-yl)-L-cysteinamide]

test system: EmGFP-HaloTag; test: Test Example 2: HeLa cells transiently overexpressing EmGFP-HaloTag, Western blot GFP/actin (Testing Method B); type: cell-based; conditions: 1 uM, 24 hours, 1 or less = degradation promoted
Experimental: Test Example 2: Evaluation Using Cell Transiently Overexpressing EmGFP-HaloTag (Testing Method B)
HeLa cells were inoculated to Dulbecco's Modified Eagle Medium (DMEM) and cultured for 24 hours. Cells overexpressing EmGFP-HaloTag were obtained by transfection with a plasmid pCMV-EmGFP-HaloTag encoding EmGFP-HaloTag. On the next day, a test compound (specifically, compounds of Examples 8, 12, 16, 21 to 23, 28, 30 and 31) was added thereto at the final concentration shown in Table 2, followed by incubation for 24 hours under conditions of 37° C./5% CO2. The cells were washed with PBS three times and treated with a cell lysis solution containing a proteolytic enzyme inhibitor to obtain a cell extract. The cell extract was subjected to SDS-PAGE. After the electrophoresis, GFP and actin were detected by Western blot. The ratio of the GFP/actin value of the drug-treated cells to the GFP/actin value of a control group in drug-untreated cells was regarded as an activity value. A value of 1 or less represents that degradation of EmGFP-HaloTag was promoted.

Compound | Activity value (GFP/actin of drug-treated cells relative to drug-untreated control)
Nc1nc2c(nc(CCCOCCOCCOCCOCCOCCOCCCCCCCl)n2Cc2ccc(F)cc2)c(=O)[nH]1 [Example 31, 2-Amino-8-(25-chloro-4,7,10,13,16,19-hexaoxapentacos-1-yl)-9-(4-fluorobenzyl)-1,9-dihydro-6H-purin-6-one] | 0.4
CC(=O)N[C@@H](CSc1nc2c(=O)n(C)c(N)nc2n1Cc1ccc(F)cc1)C(=O)NCCOCCOCCOCCOCCOCCCCCCCl [Example 30, N^2-Acetyl-S-(2-amino-9-(4-fluorobenzyl)-1-methyl-6-oxo-6,9-dihydro-1H-purin-8-yl)-N— (21-chloro-3,6,9,12,15-pentaoxahenicos-1-yl)-L-cysteinamide] | 0.2
CC(=O)N[C@@H](CSc1nc2c(=O)[nH]c(N)nc2n1C1CCCCC1)C(=O)NCCOCCOCCOCCOCCOCCCCCCCl [Example 28, N^2-acetyl-S-(2-amino-9-cyclohexyl-6-oxo-6,9-dihydro-1H-purin-8-yl)-N-(21-chloro-3,6,9,12,15-pentaoxahenicos-1-yl)-L-cysteinamide] | 0.4
CC(=O)N[C@@H](CSc1cn(Cc2ccc(F)cc2)c(=O)nc1N)C(=O)NCCOCCOCCOCCOCCOCCCCCCCl [Example 21, N^2-Acetyl-S-(4-amino-1-(4-fluorobenzyl)-2-oxo-1,2-dihydropyrimidin-5-yl)-N-(21-chloro-3,6,9,12,15-pentaoxahenicos-1-yl)-L-cysteinamide Trifluoroacetate] | 0.3
CC(=O)N[C@@H](CSc1nc2c(=O)[nH]c(N)nc2n1Cc1cccc(F)c1)C(=O)NCCOCCOCCOCCOCCOCCCCCCCl [Example 23] | 0.7
Nc1nc2c(nc(NCCC(=O)NCCOCCOCCOCCOCCOCCCCCCCl)n2Cc2ccc(F)cc2)c(=O)[nH]1 [Example 8, N^3-(2-Amino-9-(4-fluorobenzyl)-6-oxo-6,9-dihydro-1H-purin-8-yl)-N-(21-chloro-3,6,9,12,15-pentaoxahenicos-1-yl)-β-alaninamide] | 0.7

same assay, conditions: 10 uM, 24 hours, 1 or less = degradation promoted

Compound | Activity value (GFP/actin of drug-treated cells relative to drug-untreated control)
Nc1nc2c(nc(C#CCOCCOCCOCCOCCOCCOCCCCCCCl)n2Cc2ccc(F)cc2)c(=O)[nH]1 [Example 16, 2-Amino-8-(25-chloro-4,7,10,13,16,19-hexaoxapentacos-1-yn-1-yl)-9-(4-fluorobenzyl)-1,9-dihydro-6H-purin-6-one] | 0.4
CC(=O)N[C@@H](CSc1nc2c(=O)[nH]c(N)nc2n1Cc1ccccc1F)C(=O)NCCOCCOCCOCCOCCOCCCCCCCl [Example 22, N^2-acetyl-S-(2-amino-9-(2-fluorobonzvl)-6-oxo-6,9-dihydro-1H-purin-8-yl)-N-(21-chloro-3,6,9,12,15-pentaoxahenicos-1-yl)-L-cysteinamide] | 0.7
CC(=O)N[C@@H](CSc1nc2c(=O)[nH]c(N)nc2n1C1CCCC1)C(=O)NCCOCCOCCOCCOCCOCCCCCCCl [Example 12, N^2-Acetyl-S-(2-amino-9-cyclopentyl-6-oxo-6,9-dihydro-1H-purin-8-yl)-N-(21-chloro-3,6,9,12,15-pentaoxahenicos-1-yl)-L-cysteinamide] | 0.45
